In assay [1] the target is T1, Type-2 angiotensin II receptor (Homo sapiens, UniProt P50052). Further: in other assays of this panel Not Active means under 50% inhibition at 10 µM.
T1 sequence (P50052 whole entry): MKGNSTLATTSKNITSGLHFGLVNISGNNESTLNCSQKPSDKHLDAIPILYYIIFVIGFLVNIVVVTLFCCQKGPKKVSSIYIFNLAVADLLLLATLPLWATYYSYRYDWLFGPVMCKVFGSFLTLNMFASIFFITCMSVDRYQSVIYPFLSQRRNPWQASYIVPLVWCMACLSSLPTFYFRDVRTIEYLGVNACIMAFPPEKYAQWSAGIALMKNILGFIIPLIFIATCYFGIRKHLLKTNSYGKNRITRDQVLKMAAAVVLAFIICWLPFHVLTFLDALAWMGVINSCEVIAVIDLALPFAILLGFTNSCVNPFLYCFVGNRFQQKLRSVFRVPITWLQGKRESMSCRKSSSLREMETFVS
The assay is classed as cell-based. To be noted: cho-k1.

Assay [2] addresses T2, 5-hydroxytryptamine receptor 1A (Rattus norvegicus, UniProt P19327).
T2 sequence (P19327 whole entry): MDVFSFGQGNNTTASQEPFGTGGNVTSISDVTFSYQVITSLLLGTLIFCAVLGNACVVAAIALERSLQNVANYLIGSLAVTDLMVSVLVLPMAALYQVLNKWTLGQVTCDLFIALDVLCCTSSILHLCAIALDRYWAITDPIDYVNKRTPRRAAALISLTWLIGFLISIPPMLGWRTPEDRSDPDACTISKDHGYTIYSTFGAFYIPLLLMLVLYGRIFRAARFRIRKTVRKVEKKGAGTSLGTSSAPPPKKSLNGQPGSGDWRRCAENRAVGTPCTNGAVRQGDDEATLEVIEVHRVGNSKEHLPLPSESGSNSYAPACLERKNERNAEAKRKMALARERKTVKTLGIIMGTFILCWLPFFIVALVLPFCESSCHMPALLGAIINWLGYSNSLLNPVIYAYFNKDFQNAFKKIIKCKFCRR
The assay is classed as cell membranes, CHO-K1, Membrane. To be noted: for IC50: cho-k1.

Assay [3] addresses T3, Alpha-1B adrenergic receptor (Rattus norvegicus, UniProt P15823).
T3 sequence (P15823 whole entry): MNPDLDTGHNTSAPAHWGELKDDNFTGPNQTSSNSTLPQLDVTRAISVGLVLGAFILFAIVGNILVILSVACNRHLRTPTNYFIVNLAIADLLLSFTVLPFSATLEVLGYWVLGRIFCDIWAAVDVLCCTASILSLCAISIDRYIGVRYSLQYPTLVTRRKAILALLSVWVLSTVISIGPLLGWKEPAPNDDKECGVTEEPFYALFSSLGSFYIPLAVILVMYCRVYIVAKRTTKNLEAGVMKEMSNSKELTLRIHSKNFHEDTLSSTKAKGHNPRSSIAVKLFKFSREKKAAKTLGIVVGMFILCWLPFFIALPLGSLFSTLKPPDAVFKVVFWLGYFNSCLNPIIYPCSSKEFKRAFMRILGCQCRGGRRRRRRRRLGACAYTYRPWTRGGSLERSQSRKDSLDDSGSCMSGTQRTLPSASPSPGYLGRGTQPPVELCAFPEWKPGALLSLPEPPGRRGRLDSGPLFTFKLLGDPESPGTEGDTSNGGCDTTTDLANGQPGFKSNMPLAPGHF
Description: DRUGMATRIX: Alpha-1B adrenergic receptor radioligand binding (ligand: prazosin). To be noted: Not Active = under 50% inhibition at 10 µM. The assay is classed as cell membranes, Wistar, Liver, Membrane.

Assay [4] in a line: DRUGMATRIX: Imidazoline I2, Central radioligand binding (ligand: [3H] Idazoxan). To be noted: Not Active = under 50% inhibition at 10 µM. Type of assay: cell membranes, Rattus norvegicus, Wistar, Cerebral cortex, Membrane.
Assay [5] concerns the target T4, C-X-C chemokine receptor type 2 (Homo sapiens, UniProt P25025). Further: in other assays of this panel Not Active means under 50% inhibition at 10 µM.
T4 sequence (P25025 whole entry): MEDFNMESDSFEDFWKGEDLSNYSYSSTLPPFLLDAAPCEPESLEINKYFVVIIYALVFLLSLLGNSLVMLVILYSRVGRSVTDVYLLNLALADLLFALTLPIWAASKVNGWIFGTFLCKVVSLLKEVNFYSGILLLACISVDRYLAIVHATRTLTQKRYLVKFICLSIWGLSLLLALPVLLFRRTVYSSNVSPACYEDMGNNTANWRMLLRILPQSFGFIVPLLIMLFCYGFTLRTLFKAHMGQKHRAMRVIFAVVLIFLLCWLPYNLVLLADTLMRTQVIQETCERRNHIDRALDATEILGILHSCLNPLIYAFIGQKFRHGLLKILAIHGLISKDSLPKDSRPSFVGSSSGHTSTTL
Type of assay: cell membranes, Membrane. To be noted: cho-k1.

The target of another assay is T5, Glucocorticoid receptor (Homo sapiens, UniProt P04150). Further: in other assays of this panel Not Active means under 50% inhibition at 10 µM.
T5 sequence (P04150 whole entry): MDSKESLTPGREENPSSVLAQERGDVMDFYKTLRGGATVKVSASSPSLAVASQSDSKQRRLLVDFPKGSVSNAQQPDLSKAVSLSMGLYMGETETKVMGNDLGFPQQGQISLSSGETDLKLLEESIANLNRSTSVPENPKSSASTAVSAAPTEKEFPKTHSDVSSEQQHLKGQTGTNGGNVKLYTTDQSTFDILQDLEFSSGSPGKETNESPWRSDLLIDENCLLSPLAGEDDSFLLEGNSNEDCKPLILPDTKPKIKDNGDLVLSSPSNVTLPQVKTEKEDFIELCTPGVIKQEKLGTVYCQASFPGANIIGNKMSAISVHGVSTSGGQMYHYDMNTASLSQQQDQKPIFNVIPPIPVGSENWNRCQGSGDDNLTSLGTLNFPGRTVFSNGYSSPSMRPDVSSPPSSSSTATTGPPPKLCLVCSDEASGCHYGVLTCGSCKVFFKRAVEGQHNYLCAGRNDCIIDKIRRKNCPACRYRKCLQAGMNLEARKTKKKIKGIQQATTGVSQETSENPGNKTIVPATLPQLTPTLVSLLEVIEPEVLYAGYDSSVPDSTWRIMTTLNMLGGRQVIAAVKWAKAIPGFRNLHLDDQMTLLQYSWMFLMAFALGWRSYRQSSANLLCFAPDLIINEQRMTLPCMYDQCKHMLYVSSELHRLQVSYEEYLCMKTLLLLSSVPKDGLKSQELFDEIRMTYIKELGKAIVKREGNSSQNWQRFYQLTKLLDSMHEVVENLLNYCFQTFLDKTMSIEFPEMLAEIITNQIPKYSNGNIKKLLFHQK
To be noted: hela s3.

The target of a further assay is D(1A) dopamine receptor (Homo sapiens, UniProt P21728). The experiment in a line: DRUGMATRIX: Dopamine D1 radioligand binding (ligand: [3H] SCH-23390). The assay is classed as cell membranes, CHO, Membrane. To be noted: Not Active = under 50% inhibition at 10 µM; for IC50: cho.
D(1A) dopamine receptor, sequence (P21728 whole entry): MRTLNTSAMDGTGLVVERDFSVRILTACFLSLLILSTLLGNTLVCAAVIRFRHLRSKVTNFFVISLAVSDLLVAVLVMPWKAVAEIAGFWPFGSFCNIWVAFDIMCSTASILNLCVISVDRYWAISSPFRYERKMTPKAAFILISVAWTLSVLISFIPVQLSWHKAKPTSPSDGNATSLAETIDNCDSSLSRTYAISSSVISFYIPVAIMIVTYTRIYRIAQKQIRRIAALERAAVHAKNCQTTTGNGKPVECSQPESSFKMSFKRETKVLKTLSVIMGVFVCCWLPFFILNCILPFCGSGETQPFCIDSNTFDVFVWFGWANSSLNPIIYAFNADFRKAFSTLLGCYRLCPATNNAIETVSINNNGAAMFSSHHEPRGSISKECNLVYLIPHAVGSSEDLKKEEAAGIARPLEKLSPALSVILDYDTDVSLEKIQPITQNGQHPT
For a further assay, the target named is T6, Neutrophil elastase (Homo sapiens, UniProt P08246).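 Further: inhibition of neutrophil elastase enzyme activity, measured with a p-nitroanilide-linked peptide substrate; in other assays of this panel Not Active means under 50% inhibition at 10 µM.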
T6 sequence (P08246 whole entry): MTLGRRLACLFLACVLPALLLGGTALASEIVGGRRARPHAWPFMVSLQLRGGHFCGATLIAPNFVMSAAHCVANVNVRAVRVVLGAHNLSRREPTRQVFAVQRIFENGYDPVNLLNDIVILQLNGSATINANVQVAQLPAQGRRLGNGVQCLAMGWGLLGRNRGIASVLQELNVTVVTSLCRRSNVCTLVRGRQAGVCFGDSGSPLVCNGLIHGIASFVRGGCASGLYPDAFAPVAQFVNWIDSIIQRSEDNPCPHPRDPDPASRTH
Type of assay: tissue-based.

pIC50, pKi: −log10 of the molar value.

With `CNCCC=C1c2ccccc2CCc2ccccc21` [NORTRIPTYLINE], the IC50 result (in assay [1]; in assay [5]; on Glucocorticoid receptor; at Neutrophil elastase) was “Not Active” in each case. The pIC50 – broadly, the IC50 on a negative log10 scale, so that one unit is a factor of ten – in assay [2] (read-out: IC50) is 5.73; in assay [3] (read-out: IC50), 6.68; in assay [4] (read-out: IC50), 5.41; on D(1A) dopamine receptor (read-out: IC50) it was 6.27. Moreover, the pKi (commonly the negative decadic logarithm of the Ki, by convention in mol/L) was 5.97 in assay [2] (read-out: Ki), 6.94 in assay [3] (read-out: Ki), 5.59 in assay [4] (read-out: Ki) and 6.57 on D(1A) dopamine receptor (read-out: Ki).
In the case of `CN(C)[C@@H]1C(O)=C(C(N)=O)C(=O)[C@@]2(O)C(O)=C3C(=O)c4c(O)cccc4[C@@](C)(O)[C@H]3[C@H](O)[C@@H]12` [OXYTETRACYCLINE], the IC50 entry (in assay [1]; in assay [2]; in assay [3]; in assay [4]; in assay [5]; at Glucocorticoid receptor) was “Not Active” each time. In addition, the IC50 entry on D(1A) dopamine receptor and against Neutrophil elastase was “Not Active” in each case. Besides, in assay [4], the Ki result is recorded as “Not Active”.
Take `Fc1ccc([C@@H]2CCNC[C@H]2COc2ccc3c(c2)OCO3)cc1` [PAROXETINE]: the IC50 entry (in assay [1]; in assay [2]; in assay [3]; in assay [4]; in assay [5]; against Glucocorticoid receptor) was “Not Active” in each case. Further, the IC50 entry at D(1A) dopamine receptor and against Neutrophil elastase was “Not Active” throughout. Besides, the Ki result in assay [4] is “Not Active”.
As to `CC(C)(S)[C@@H](N)C(=O)O` [PENICILLAMINE], the IC50 entry (in assay [1]; in assay [2]; in assay [3]; in assay [4]; in assay [5]; on Glucocorticoid receptor) was “Not Active” each time. Besides, the IC50 result at D(1A) dopamine receptor and against Neutrophil elastase was “Not Active” in each case. For the same compound, the Ki result in assay [4] is given as “Not Active”.
Turning to `CC(=O)CCCCn1c(=O)c2c(ncn2C)n(C)c1=O` [PENTOXIFYLLINE], the IC50 entry (in assay [1]; in assay [2]; in assay [3]; in assay [4]; in assay [5]; against Glucocorticoid receptor) was “Not Active” each time. The IC50 result at D(1A) dopamine receptor and against Neutrophil elastase was “Not Active” throughout. Besides, the Ki entry in assay [4] is “Not Active”.
Consider `O=C1NC(=O)C(c2ccccc2)(c2ccccc2)N1` [PHENYTOIN], for which the IC50 entry (in assay [1]; in assay [2]; in assay [3]; in assay [4]; in assay [5]; against Glucocorticoid receptor) was “Not Active” in each case. Further, the IC50 entry on D(1A) dopamine receptor and at Neutrophil elastase was “Not Active” in each case. In addition, in assay [4], the Ki result is on record as “Not Active”.
As to `CNC(=O)Oc1ccc2c(c1)[C@]1(C)CCN(C)[C@@H]1N2C` [PHYSOSTIGMINE], the IC50 result (in assay [1]; in assay [2]; in assay [3]; in assay [4]; in assay [5]; against Glucocorticoid receptor) was “Not Active” in each case. Further, the IC50 result at D(1A) dopamine receptor and at Neutrophil elastase was “Not Active” in each case. In assay [4], the Ki entry was “Not Active”.
Consider `C=C(C)[C@@H]1[C@H]2OC(=O)[C@@H]1[C@]1(O)C[C@H]3O[C@]34C(=O)O[C@H]2[C@]14C` [PICROTOXININ], for which the IC50 result (in assay [1]; in assay [2]; in assay [3]; in assay [4]; in assay [5]; against Glucocorticoid receptor) was “Not Active” in each case. Further, the IC50 result on D(1A) dopamine receptor and at Neutrophil elastase was “Not Active” throughout. Moreover, the Ki entry in assay [4] was “Not Active”.
For `CN1C(C(=O)Nc2ccccn2)=C(O)c2ccccc2S1(=O)=O` [PIROXICAM], the IC50 entry (in assay [1]; in assay [2]; in assay [3]; in assay [4]; in assay [5]; against Glucocorticoid receptor) was “Not Active” throughout. Further, the IC50 result at D(1A) dopamine receptor and against Neutrophil elastase was “Not Active” each time. Besides, the Ki entry in assay [4] is listed as “Not Active”.
With `CCC1(c2ccccc2)C(=O)NCNC1=O` [PRIMIDONE], the IC50 result (in assay [1]; in assay [2]; in assay [3]; in assay [4]; in assay [5]; at Glucocorticoid receptor) was “Not Active” each time. Further, the IC50 result at D(1A) dopamine receptor and against Neutrophil elastase was “Not Active” each time. Moreover, in assay [4], the Ki entry is listed as “Not Active”.
